# Laboratory results published in ChEMBL document CHEMBL5724558, “Image-based profiling of drug vulnerabilities in CRC organoids” (2024).
# “And” between values parts separate entries of the source, which are not always exact repeats. Equal values may be shown once.
# Tests used:
# Format in all cases: functional, Homo sapiens
# Set-up in all cases: dose or concentration left out as unconfirmed
# [1] = system: Colon cancer organoid; test: (§1) Image-based profiling of donated chemical probes and chemogenomic kinase set in O06 CRC organoid. Image analysis is performed on the sum area metric, and the data were normalized to the DMSO control. After imaging the organoid viability is measured using the OneGloEX Luciferase Assay System. The normalized viability data and sum area are reported.
# [2] = system: Colon cancer organoid; test: as §1, with “O09” for “O06”
# [3] = system: Colon cancer organoid; test: as §1, with “O21” for “O06”
SMILES,Cell Viability ([1]; Replication number 1),Cell Viability ([1]; Replication number 2),Cell Viability ([2]; Replication number 1),Cell Viability ([2]; Replication number 2),Cell Viability ([3]; Replication number 1),Cell Viability ([3]; Replication number 2)
CC[C@@H]1CN(C(=O)NCC(F)(F)F)C[C@@H]1c1cnc2cnc3[nH]ccc3n12 [UPADACITINIB],103.03% and 85.909%,77.8559% and 94.8072%,147.971% and 117.189%,96.4317% and 92.8632%,100.634% and 104.808%,99.9708% and 92.6952%
O=c1nc(-c2ccccn2)sc2ccccc12 [BTZO-1],100.751% and 107.26%,110.744% and 103.05%,107.798% and 116.353%,106.736% and 92.2965%,137.995% and 94.89%,98.0739% and 81.1225%
O=C(O)c1ccc(-c2coc3ncc(-c4ccccc4)cc23)cc1Cl,151.185% and 107.979%,124.809% and 78.3539%,308.758% and 113.836%,206.023% and 93.0484%,190.076% and 113.91%,188.696% and 75.9402%
CCN(CC)S(=O)(=O)Nc1cccc(-c2ccc3c(NC(=O)C4CC4)n[nH]c3c2)c1,115.301% and 130.405%,90.7141% and 75.8621%,118.731% and 102.205%,162.059% and 116.31%,106.348% and 90.1082%,91.5896% and 92.3751%
COc1cc(-c2cn([C@H]3CCc4c(F)cccc4N(CC(F)(F)F)C3=O)nn2)ccc1-n1cnc(C)c1,98.6748% and 98.829%,105.811% and 104.708%,81.2479% and 97.2392%,40.0152% and 77.6926%,110.846% and 137.969%,98.2534% and 104.592%
CCCc1cc(C)[nH]c(=O)c1CNC(=O)c1cc(-c2ccnc(N3CCN(C)CC3)c2)cc2c1cnn2C(C)C,109.583% and 102.443%,141.979% and 116.144%,138.622% and 115.688%,134.993% and 114.602%,85.4576% and 83.4749%,100.02% and 92.3628%
CC(C)C(=O)Nc1n[nH]c2cc(-c3cccc(NS(=O)(=O)C4CC4)c3)ccc12,98.7656% and 120.438%,86.9624% and 76.1389%,171.396% and 120.765%,122.795% and 96.2655%,108.143% and 100.309%,99.3973% and 100.309%
Cc1sc2c(c1C)C(c1ccc(Cl)cc1)=N[C@@H](CC(=O)NCCCCCCCCNC(=O)COc1cccc3c1C(=O)N(C1CCC(=O)NC1=O)C3=O)c1nnc(C)n1-2 (some centres undefined),4.9545% and 11.7664%,6.03% and 10.6824%,79.9563% and 42.1947%,86.5792% and 48.4637%,41.9399% and 81.7113%,36.361% and 51.9272%
Cc1cc(CN)cc(C)c1-c1ncn(C)c1-c1ccnc2cc(F)ccc12.Cl,218.867% and 141.584%,205.957% and 111.843%,165.285% and 103.632%,176.587% and 123.725%,125.215% and 107.577%,113.008% and 89.6778%
